Experimental data reported in US9408891B2, “Methods of using gelsolin to treat or prevent bacterial sepsis” (priority 2003, dated 2016).
Entries after “also recorded” stand apart in the source; their conditions may differ.

Columns and labels:
human platelets = assay: Collagen-induced aggregation of gel-filtered platelets; format: cell-based; settings: collagen 10 μg/ml
Procedure: To isolate human platelets, blood from healthy volunteers was collected in acid-citrate dextrose. Platelet-rich plasma obtained after centrifugation (15 minutes, 110×g) at room temperature, was supplemented with apyrase (0.5 U/ml) (Sigma-Aldrich) to degrade excess nucleotides. Platelets were sedimented by centrifugation (10 minutes, 1000×g), suspended in buffer A (139 mM NaCl, 2.8 mM KCl, 0.8 mM MgCl2, 0.8 mM KH2PO4, 8.9 mM NaHCO3, 10 mM HEPES, 5.6 mM glucose, 0.3% albumin, pH 7.35) and filtered on a 50 ml column of Sepharose 2B to obtain gel-filtered platelets (GFP).
Platelet aggregation was initiated by adding collagen (10 μg/ml) (Chrono-Log Corp., Havertown, Pa.). Platelet aggregation was monitored using a Chronolog Lumi-Aggregometer (Chrono-Log Corp.). Changes in light transmission were recorded for 10 minutes, using a PowerLab/200 instrument and MacLab Chart program Version 3.2. When required before activation, the platelet suspension was reacted with LPS, or LPS-preincubated with the SEQ ID No:1 peptide (QRLFQVKGRR).

[1] = target: T1, PBP10 (PIP2-binding site of gelsolin) (Homo sapiens, UniProt P06396); assay: Rhodamine-B fluorescence change of gelsolin peptide PBP10 after adding lipids; settings: 2 μM peptide, buffer A pH 7.0, 15 min
T1 construct: made in house; host or cells: solid phase peptide synthesis
Procedure: Therefore, to determine changes of gelsolin OD at 280 nm, different amounts of LPS, LPA and PS were added to recombinant human gelsolin (rhGLS) solutions and OD emission spectra were recorded using spectrophotometer Genesys 6 (Thermo-Spectronic, USA).
Interaction of LPS and gelsolin was examined using rhodamine B- and pyrene-labeled SEQ ID No:1 (QRLFQVKGRR). The effect of LPS on gelsolin was determined in terms of the rhodamine-B fluorescent changes of PBP10 peptide in the presence of different lipids (FIG. 1C); and the fluorescence emission spectra of pyrene-labeled SEQ ID No:1 (2 μM) in the presence of LPS from Escherichia coli (1.2 μM), PIP2 (0.82 μM) and LPA (0.82 μM) (FIG. 1D) The results using the pyrene-derivatized gelsolin peptide confirmed the LPS induced clustering of the peptide with resulting excimer fluorescence of the pyrene group, which was evident as a large increase in fluorescence emission at 480 nm.
The tested gelsolin concentration was 50 nM; LTA ranged from 0-50 μM; Pyrene-F-actin was 0.3 μM. Recording changes in fluorescently-labeled (rhodamine B-labeled) gelsolin peptide PBP10 (10 μM), indicates a specific interaction between gelsolin and LTA.

rat primary astrocytes = assay: LPS-induced actin cytoskeleton disassembly, phalloidin staining, astrocytes; format: cell-based; settings: LPS 10 μg/ml, 10 min
Source text: In light of the findings in the previous Examples, and using the materials prepared in above, the effect of the gelsolin binding by LPS was studied to determine the effect on cellular responses in vitro. Cell cultures of human aortic endothelial cells (HAEC) and rat primary astrocytes were used to evaluate the effect of LPS on actin. Both of these cell types have mCD14 (membrane bound C14) and TLR LPS receptors (Faure, et al., J. Biol. Chem. 275:11058-11063 (2000); Bsibsi, et al., J. Neuropathol. Exp. Neurol. 61:1013-1021 (2002); Bowman, et al., Glia 43:281-291 (2003)).
Rat primary astrocytes were obtained from prenatal rats and maintained for 14 days in culture before use. Embryos (E17-E19) were removed by caesarian section from a Sprague-Dawley rat and the hippocampi were surgically removed. The tissue was digested in trypsin/DNAse at 37° C., centrifuged (1000×5 min) and filtered to derive suspensions from each pup. […]
HAECs and astrocytes cultures were incubated for 10 minutes in medium containing 10 μg/ml LPS alone, or LPS that had been pre-incubated with 0.16 mg/ml of human gelsolin. […] Location of transcription factor nuclear factor-kappaB (NF-κB) was observed using a monoclonal antibody to NF-κB (Molecular Probes), and cell nuclei were detected by counter-staining with 4′, 6-diamidino-2-phenylindole dihydrochloride (DAPI) (Sigma).

lipopolysaccharide [LPS]
effect of LPS alone on collagen-induced platelet aggregation and secretion (human platelets): strongly inhibited
fluorescence quenching / change of rhodamine-B peptide [1]: induced identical concentration-dependent fluorescence quenching
effect of LPS alone on actin cytoskeleton (rat primary astrocytes): rapidly induced the disassembly of the actin cytoskeleton; also recorded: disassembly of the actin cytoskeleton was readily induced; also recorded: rapidly induced disassembly of the actin cytoskeleton
